Test results from patent publication US9980943B2, “Methods of treating muscular dystrophy” (BOARD OF REGENTS OF THE NEVADA SYSTEM OF HIGHER EDUCATION, …, priority 2013, dated 2018).
“And” between values parts separate entries of the source, which are not always exact repeats. Equal values may be shown once.

How the values were obtained:
Type in all cases: cell-based, mouse
[1] = tested on: β-galactosidase in CMV-LacZ C2C12 myotubes; experiment: CMV-LacZ secondary screen in C2C12 myotubes (β-Gal stabilizing assay); settings: C2C12 CMV-LacZ myotubes, fold relative to DMSO
Outline: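 A secondary screen identifies compounds that stabilize β-gal independently of the native promoter, using CMV-LacZ C2C12 cells. Curves span 0.5–40 μM at six levels, in duplicate.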

[2] = tested on: α7 integrin (LacZ reporter in α7+/LacZ myotubes); experiment: Myotube α7 integrin FDG assay (Burkin assay in myotubes, 96-well); settings: myotubes
[3] = tested on: β-galactosidase in CMV-LacZ C2C12 myoblasts; experiment: CMV-LacZ secondary screen in C2C12 myoblasts (β-Gal stabilizing assay); settings: CMV-LacZ C2C12 myoblasts
Outline: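 Dose-response runs at 0.5–40 μM (0.5, 1, 5, 10, 20, 40 μM; N=2 per point) used a clonal C2C12 line carrying CMV-LacZ. Cells were assayed as myoblasts or as differentiated myotubes, and β-galactosidase levels were read with the FDG fluorogenic substrate.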

[4] = tested on: α7 integrin (LacZ reporter in α7βgal+/− myoblasts); experiment: Myoblast α7+/LacZ integrin FDG assay (Burkin assay in myoblasts, 96-well); settings: α7+/LacZ myoblasts, 96-well

Compound	CMV-LACZ in Myotubes, signal relative to DMSO ([1]; 0.5 uM)	CMV-LACZ in Myotubes, signal relative to DMSO ([1]; 1 uM)	CMV-LACZ in Myotubes, signal relative to DMSO ([1]; 5 uM)	CMV-LACZ in Myotubes, signal relative to DMSO ([1]; 10 uM)	CMV-LACZ in Myotubes, signal relative to DMSO ([1]; 20 uM)	CMV-LACZ in Myotubes, signal relative to DMSO ([1]; 40 uM)	Burkin Assay in Myotubes, α7 integrin LacZ reporter signal relative to DMSO ([2]; 0.5 uM)	Burkin Assay in Myotubes, α7 integrin LacZ reporter signal relative to DMSO ([2]; 1 uM)	Burkin Assay in Myotubes, α7 integrin LacZ reporter signal relative to DMSO ([2]; 5 uM)	Burkin Assay in Myotubes, α7 integrin LacZ reporter signal relative to DMSO ([2]; 10 uM)	Burkin Assay in Myotubes, α7 integrin LacZ reporter signal relative to DMSO ([2]; 20 uM)	Burkin Assay in Myotubes, α7 integrin LacZ reporter signal relative to DMSO ([2]; 40 uM)	CMV-LACZ in Myoblasts (β-galactosidase activity relative to DMSO) ([3]; 0.5 uM)	CMV-LACZ in Myoblasts (β-galactosidase activity relative to DMSO) ([3]; 1 uM)	CMV-LACZ in Myoblasts (β-galactosidase activity relative to DMSO) ([3]; 5 uM)	CMV-LACZ in Myoblasts (β-galactosidase activity relative to DMSO) ([3]; 10 uM)	CMV-LACZ in Myoblasts (β-galactosidase activity relative to DMSO) ([3]; 20 uM)	CMV-LACZ in Myoblasts (β-galactosidase activity relative to DMSO) ([3]; 40 uM)	Burkin Assay in Myoblasts, signal relative to DMSO ([4]; 0.5 uM)	Burkin Assay in Myoblasts, signal relative to DMSO ([4]; 1 uM)	other results
O=C(Nc1ccccc1Cl)C1CCCN1C(=O)OCc1ccccc1 (stereo not drawn) [MLS001030621-01]	0.7844	0.7970	0.9872	1.0546	0.9024	1.0141	0.9724	0.9493	0.999	0.9429	0.7954	0.7203	0.7081	1.0531	1.0494	1.1844	1.0307	0.9063	1.004	1.158	Burkin Assay in Myoblasts, signal relative to DMSO ([4]; 5 uM): 1.15; Burkin Assay in Myoblasts, signal relative to DMSO ([4]; 10 uM): 1.161; Burkin Assay in Myoblasts, signal relative to DMSO ([4]; 20 uM): 1.001; Burkin Assay in Myoblasts, signal relative to DMSO ([4]; 40 uM): 1.01
CC(C(=O)Nc1ccc(C#N)cc1)N(C)CC(=O)Nc1cccc(F)c1 (stereo not drawn) [MLS001033255-01]	1.1038	1.1438	0.9525 and 0.8423	1.0297 and 1.045	0.9930 and 1.013	0.7740 and 1.236	0.91	0.8188	1.086	1.246	0.8337	1.232	0.7590	1.0723	0.8766	1.0219	1.1919	0.7905	1.013	0.9373	Burkin Assay in Myotubes (signal relative to DMSO) ([2]; 0.5 uM): 0.9678; Burkin Assay in Myotubes (signal relative to DMSO) ([2]; 1 uM): 0.9526; Burkin Assay in Myotubes (signal relative to DMSO) ([2]; 5 uM): 1.213; Burkin Assay in Myotubes (signal relative to DMSO) ([2]; 10 uM): 0.997; Burkin Assay in Myotubes (signal relative to DMSO) ([2]; 20 uM): 0.8683; Burkin Assay in Myotubes (signal relative to DMSO) ([2]; 40 uM): 1.04; Burkin Assay in Myoblasts, value relative to DMSO ([4]; 0.5 uM): 0.9467; Burkin Assay in Myoblasts, value relative to DMSO ([4]; 1 uM): 0.9407; Burkin Assay in Myoblasts, signal relative to DMSO ([4]; 5 uM): 1.017; Burkin Assay in Myoblasts, value relative to DMSO ([4]; 5 uM): 0.9509; Burkin Assay in Myoblasts, signal relative to DMSO ([4]; 10 uM): 1.124; Burkin Assay in Myoblasts, value relative to DMSO ([4]; 10 uM): 0.9542; Burkin Assay in Myoblasts, signal relative to DMSO ([4]; 20 uM): 0.985; Burkin Assay in Myoblasts, value relative to DMSO ([4]; 20 uM): 0.7962; Burkin Assay in Myoblasts, signal relative to DMSO ([4]; 40 uM): 0.8279; Burkin Assay in Myoblasts, value relative to DMSO ([4]; 40 uM): 0.799
CCc1ccc(S(=O)(=O)NCCOc2cccc3cccnc23)cc1 [MLS001034810-01]	1.1000	1.7389	0.9578	1.0965	1.0578	1.1344	1.035	1.07	1.403	1.165	1	0.7593	0.9698	0.9538	1.0948	0.9459	1.1193	0.7030	1.021	0.9975	Burkin Assay in Myoblasts, signal relative to DMSO ([4]; 5 uM): 1.375; Burkin Assay in Myoblasts, signal relative to DMSO ([4]; 10 uM): 1.191; Burkin Assay in Myoblasts, signal relative to DMSO ([4]; 20 uM): 0.8996; Burkin Assay in Myoblasts, signal relative to DMSO ([4]; 40 uM): 0.8407
